Patent publication US12263248B2, “Compounds and compositions for intracellular delivery of therapeutic agents” (ModernaTX, Inc., priority 2018, dated 2025)

Columns and labels:
[1] = Encapsulation efficiency of RNA (QUANT-IT RIBOGREEN RNA assay); format: physicochemical; conditions: for EE (%): Table 1A; for % Encapsulation: lipid nanoparticle, ±SD within one assay run (Table 37)
How it was run: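 RiboGreen fluorescence (ex ~480, em ~520 nm) compared between intact samples and Triton X-100-lysed samples after 15 min at 37 °C in TE buffer, pH 7.5. Percent free RNA is the blank-corrected intact/disrupted ratio.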

sC5b-9 = experiment: Complement activation in vitro (sC5b-9 levels); format: cell-based; conditions: human cells contacted in vitro; for sC5b-9 levels relative to saline: in words
Procedure: Complement activation assists in the clearance of pathogens from an organism. As it is undesirable that a subject's body recognize a nanoparticle composition as a foreign invader, low complement system activation upon administration of such a composition is preferred. The complex sC5b-9 is a marker for the activation of the complement system. Thus, human cells were contacted in vitro with nanoparticle compositions according to Table 1A and were evaluated for sC5b-9 levels.

[2] = Apparent (surface) pKa of the LNP formulation (TNS assay); format: physicochemical
How it was run: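 LNP (0.04 mg/mL mRNA) mixed with TNS reagent in 21 buffers spanning about pH 3-12, in triplicate; fluorescence plotted against pH as sigmoidal curve. Apparent pKa taken as […] curve inflection point; validated in 1× PBS and 20 mM Tris w/8% sucrose.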

IL-6, IP-10 = experiment: Cytokine induction in mice upon intravenous administration; format: in vivo; design: Cytokine induction IL-6 / Cytokine induction IP-10: unit not given here; conditions: 0.5 mpk, 6 hours; for IL-6 induction: i.v., in words; for Cytokine induction IL-6 / Cytokine induction IP-10: intravenous
Description: The introduction of foreign material into a mammalian body induces an innate immune response that promotes cytokine production. Such immune responses to, for example, nanoparticle compositions including therapeutic and/or prophylactics, are undesirable. The induction of certain cytokines is thus measured to evaluate the […] of nanoparticle compositions. The concentrations of various cytokines in mice upon intravenous administration of nanoparticle compositions presented in Table 1A at a dosage of 0.5 mpk was measured at 6 hours. The standard MC3 formulation and a PBS control were also tested. As is evident in Table 7, IL-6 induction was highest for compositions including Compounds 1, 3, 9, 19, and 26, while IP-10 induction was highest for compositions including Compounds 3, 4, 7, 20, and 26. IL-6 induction was lowest for compositions including Compounds 4, 11, 12, and 28. IP-10 induction was lowest for compositions including Compounds 10, 11, 12, 13, 15, 17, and 18.

[3] = Particle size and polydispersity index of nanoparticle compositions (Zetasizer Nano ZS); format: physicochemical; conditions: for PDI / Size (nm): Table 1A; for Size (nm): lipid:DSPC:cholesterol:PEG-DMG 50:10:38.5:1.5 mol %; for PDI (Polydispersity index) / Size: lipid nanoparticle, ±SD within one assay run (Table 37)
How it was run: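 Particle size and PDI were measured on a Zetasizer Nano ZS with the nanoparticle compositions dispersed in 1×PBS.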

luciferase (Luc) mRNA [4] = experiment: Luc expression in liver, lung, spleen and femur 6 hours after intravenous administration; format: in vivo; conditions: mice, 0.5 mpk; for Total Flux Femur / Total Flux Liver / Total Flux Lung / Total Flux Spleen: intravenous
How it was run: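 LNP-formulated mRNA given IV to mice (n=3) at 0.5 mpk; at 6 h, bioluminescence imaged ex vivo 15 min after IP D-luciferin (15 mg/mL, 200 μL), organs imaged within 25 min. Values are total flux by region of interest.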

luciferase (Luc) mRNA [5] = experiment: Luc expression, whole body bioluminescence after intravenous administration to mice; format: in vivo; conditions: for Total Flux 3 hours / Total Flux 6 hours / Total Flux 24 hours / flux at all timepoints measured / luciferase activity relative to MC3 LNP control: mice; for Total Flux 3 hours / Total Flux 6 hours / Total Flux 24 hours / flux at all timepoints measured: i.v., 0.5 mg/kg; for Total Flux 3 hours / Total Flux 6 hours / Total Flux 24 hours: Luc mRNA; for flux at all timepoints measured: 3, 6 and 24 hour, in words; for luciferase activity relative to MC3 LNP control: intravenous, 0.5 mg/kg (mRNA dose)
How it was run: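 Luc mRNA nanoparticle formulations given intravenously to mice (n=6) at 0.5 mg/kg; whole-body bioluminescence imaged at 3, 6 and 24 h. CD-1 mice received IP D-luciferin (200 μL of 15 mg/mL) 15 min before imaging; total flux quantified by region of interest.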

[6] = Chemical stability of lipids in ethanol (lipid purity); format: physicochemical
Procedure: Ester linkages were previously reported to trigger metabolism by esterases in vivo. (See Fukami, T. et al. Drug Metab. Pharmacokinet. 2012, 27, 466-477, the content of which is incorporated by reference herein in its entirety). […] (See Maier M. A., Mol. Ther. 2013, 21, 1570-1578, the content of which is incorporated herein in its entirety) First, the chemical stability of the lipids was evaluated by measuring ethanol stability at room temperature and 37° C. (Table 39). […] LNPs formed with compound 138 were larger, with a surface pKa>7. […] Removal of one ester function (compound 136) afforded LNPs with improved physiochemical characteristics and lower LNP surface pKa.

[7] = Lipid clearance: lipid level in mouse liver tissue (LC-MS/MS); format: in vivo
[8] = lipid nanoparticle, ±SD within one assay run (Table 37)

% Encapsulation [1] | pKa [2, 8] | SMILES | EE (%) [1] | Fold increase in sC5b-9 levels versus saline (sC5b-9) | sC5b-9 levels relative to saline (sC5b-9) | pKa ([2]; Table 1A) | IL-6 induction (IL-6, IP-10) | Cytokine induction IL-6 (IL-6, IP-10) | Cytokine induction IP-10 (IL-6, IP-10) | PDI [3] | Size (nm) [3] | Flux in the spleen (luciferase (Luc) mRNA [4]; i.v., in words) | Total Flux Femur (luciferase (Luc) mRNA [4]) | Total Flux Liver (luciferase (Luc) mRNA [4]) | Total Flux Lung (luciferase (Luc) mRNA [4]) | Total Flux Spleen (luciferase (Luc) mRNA [4]) | Total Flux 3 hours (luciferase (Luc) mRNA [5]) | Total Flux 6 hours (luciferase (Luc) mRNA [5]) | Total Flux 24 hours (luciferase (Luc) mRNA [5]) | flux at all timepoints measured (luciferase (Luc) mRNA [5]) | further results
 |  | CCCCCCCCCOC(=O)CCCCCCCN(CCCCCCCC(=O)OC(CCCCCCCC)CCCCCCCC)CCOC(C)=O [Compound 9, Heptadecan-9-yl 8-((2-acetoxyethyl)(8-(nonyloxy)-8-oxooctyl)amino) octanoate] | 75.7% | 0.92 | slightly decrease | 4.87 | highest | 317.45 | 366.53 | 0.12 | 68.5 nm | lowest | 2.57E+04 | 4.30E+05 | 2.56E+04 | 5.51E+04 | 1.43E+08 | 3.46E+06 | 1.01E+06 | significantly lower flux | 
 |  | CCCCCCCCCCCCCCCCCCN(CCO)CCCCCCCC(=O)OC(CCCCCCCC)CCCCCCCC [Compound 1, Heptadecan-9-yl 8-((2-hydroxyethyl)(octadecyl)amino)octanoate] | 97.04% | 0.82 | slightly decrease | 6.50 | highest | 267.24 | 687.14 | 0.091 | 72.7 nm |  | 7.52E+05 | 4.02E+08 | 1.72E+06 | 4.27E+06 | 3.48E+09 | 3.40E+09 | 4.10E+08 |  | Fold increase in total body Luc Flux relative to MC3 at 6 h (luciferase (Luc) mRNA [5]; Table 3A, i.v. administration): 0.40
95.2 ± 0.5% | 6.58 ± 0.11 | CCCCCCCCCOC(=O)CCCCCCCN(CCCCCCCC(=O)OC(CCCCCCCC)CCCCCCCC)CCN(C)C [Compound 14, Heptadecan-9-yl 8-((2-(dimethylamino)ethyl)(8-(nonyloxy)-8-oxooctyl)amino)octanoate] | 95.24% |  |  | 6.58 |  | 75.29 | 621.49 | 0.15 | 130.1 nm |  | 4.91E+06 | 1.91E+08 | 4.74E+06 | 1.92E+08 | 4.43E+08 | 2.29E+09 | 1.39E+08 |  | PDI (Polydispersity index) [3]: 0.15 ± 0.07; Size [3]: 130.1 ± 3.5 nm; Lipid Purity ([6]; t = 0): 92.08%; Lipid Purity ([6]; t = 96 h, 25° C.): 92.07%; Lipid Purity ([6]; t = 96 h, 37° C.): 91.90%; luciferase activity relative to MC3 LNP control (luciferase (Luc) mRNA [5]): complete loss of delivery efficiency
 |  | CCCCCC/C=C\COC(=O)CCCCCCCN(CCO)CCCCCCCC(=O)OC/C=C\CCCCCC [Compound 139, Di((Z)-non-2-en-1-yl) 8,8′-((2-hydroxyethyl)azanediyl)dioctanoate] | 78.2% | 0.73 |  | 7.04 |  | 23.57 | 153.36 | 0.54 | 174.0 nm |  | 5.12E+04 | 8.27E+05 | 5.26E+04 | 2.10E+06 | 3.50E+07 | 1.17E+07 | 5.89E+05 |  | 
96.9 ± 1.2% | 6.79 ± 0.37 | CCCCCCCCCOC(=O)CCCCCCCN(CCCCCCCC(=O)OC(CCCCCCCC)CCCCCCCC)CCCNC(=O)C(C)(C)COC [Compound 281, Heptadecan-9-yl 8-((3-(3-methoxy-2,2-dimethylpropanamido)propyl)(8-(nonyloxy)-8-oxooctyl)amino)octanoate] |  |  |  |  |  |  |  |  |  |  |  |  |  |  |  |  |  |  | % dose remaining Mouse liver tissue, 24 h ([7]; CD-1 mouse liver 24 h after 0.5 mg/kg bolus dose mRNA, n = 5 ± S.D.): 66 ± 22%; original dose remaining in liver tissue 24 hours post dose ([7]; mice, intravenous): 66%; PDI (Polydispersity index) [3]: 0.14 ± 0.05; Size [3]: 93.8 ± 5.6 nm; Lipid Purity ([6]; t = 0): 95.17%; Lipid Purity ([6]; t = 96 h, 25° C.): 95.15%; Lipid Purity ([6]; t = 96 h, 37° C.): 96.47%; luciferase activity relative to MC3 LNP control (luciferase (Luc) mRNA [5]): two-fold lower
 |  | CCCCCCCCCCCOC(=O)CCCCCN(CCO)CCCCCC(=O)OCCCCCCCCCCC [Compound 141, Diundecyl 6,6′-((2-hydroxyethyl)azanediyl)dihexanoate] | 94.1% | 1.81 |  | 7.47 |  | 327.15 | 1072.04 | 0.99 | 91.3 nm | lowest | 2.86E+04 | 1.59E+05 | 3.85E+04 | 6.29E+04 |  | 1.21E+06 | 3.49E+05 | significantly lower flux | Flux in the liver (luciferase (Luc) mRNA [4]; i.v., in words): lowest
